Experimental data from patent US7732487B2, “Method for treating a disease or condition responsive to opening of C1C-2 channel” (priority 2001, dated 2010).
Marks after values point to notes of the source that are not given here.

How the values were obtained:
ddY male mice = experiment: Antianoxia effect: duration of gasping after beheading in mice; type: in vivo, mouse; conditions: 0.3 mg/kg subcutaneous, 30 minutes before beheading, Mean ± S.D.
Procedure: Test substance 1 of 0.3 mg/kg in 10 mL/kg of vehicle was subcutaneously administered to ddY male mice (5 weeks old, weight: 27-30 g). The control group received the vehicle. Thirty minutes after the administration, the mice were beheaded with guillotine. Duration of gasping shown after beheading was measured.

male Wistar rats [1] = experiment: Water-immersion restraint stress induced ulcer model; type: in vivo, rat; conditions: for Ulcer Coefficient: Mean ± S.E.
Procedure: (§1) Effects on acute ulcer was determined by means of water-immersion restraint stress induced ulcer model and indomethacin induced ulcer model.
(§2) Test substance 1 was orally administered to male Wistar rats (weight: 180-210 g) that had been fasted for 24 hours. In the water-immersion restraint stress induced ulcer model, 10 minutes after the oral administration of test substance 1, the rats were bound in a stress cage and immersed in water at 23° C. up to the level of their chest xiphisternums. Six hours after the immersion, the animals were killed by cervical dislocation. In the indomethacin induced ulcer model, immediately after the oral administration of test substance 1 or 2, indomethacin 10 mg/kg was orally administered. Five hours after the administration, the animals were killed by cervical dislocation. The stomachs removed from the animals were fixed with 1% formalin and then dissected along the greater curvatures. The major axis (mm) of each ulcer formed in the stomach was measured. The major axes of the ulcers in each animal were totaled, which were expressed as ulcer coefficients. Based on the ulcer coefficients of the control group and those of the groups receiving test substances, the ulcer inhibitory rates were calculated.

male Wistar rats [2] = experiment: Indomethacin induced ulcer model; type: in vivo, rat; conditions: for Ulcer Coefficient: Mean ± S.E.
Procedure: as §1, §2

male white rabbit = experiment: Amount of lacrimal fluid and chloride ion concentration in lacrimal fluid in rabbit; type: in vivo; conditions: 0.001% eye drop, 30 μL/eye, two hours after instillation, Mean ± S.E.
Procedure: An eye drop composition comprising 0.001% of the test substance 1 was instilled to male white rabbit in the amount of 30 μL/eye. The control group received the same amount of eye drop vehicle. […] Then the amount of lacrimal fluid was measured from the length of wetting area on the paper filter with the scale on it. […] The collected lacrimal fluid was diluted five fold with distilled water and chloride ion concentration in the lacrimal fluid was measured with a chloride counter (CL-7, Hiranuma Sangyo Co. Ltd., Japan). Student's t-test and Wilcoxon's test were used in comparing the control group and the group receiving test substance 1. P values less than 0.05 were considered to be statistically significant.

male Wistar rats [3] = experiment: Amount of intestinal fluid and chloride ion concentration in intestinal fluid in rat; type: in vivo; conditions: 30 minutes after administration, Mean ± S.E.
Procedure: Test substance 1: 13,14-dihydro-15-keto-16,16-difluoro-prostaglandin E1, which is a ClC-2 channel opener was used. The test substance 1 of 10 or 100 μg/kg in 5 mL/kg of the vehicle was orally administered to male Wistar rats (six weeks old, weight: 180-210 g) that had been fasted for at least 16 hours. The control group received the same volume of the vehicle (0.5% ethanol and 0.01% polysorbate 80 in distilled water). Thirty minutes after the administration, the animals underwent laparotomy under ether anesthesia. The first portion of the duodenum and end portion of the ileum were ligated respectively and the bowel was removed. The intestinal fluid of each animal was collected from the removed bowel and the amount was determined. After the intestinal fluid was centrifuged by 10,000×g for 5 minutes, its supernatant was collected. The chloride ion concentration in the supernatant was measured with a chloride counter (CL-7, Hiranuma Sangyo Co., Ltd.). Dunnett's test was used in comparing the control group and the test groups receiving test substance 1 in each dose. P values less than 0.05 were considered to be statistically significant.

male Wistar rats [4] = experiment: Antipneumonedema effect, ammonium sulfate induced, in rats; type: in vivo, rat
Procedure: Test substance 1 of 0.1 or 0.01 mg/kg in 5 mL/kg of vehicle was subcutaneously administered to male Wistar rats (7 weeks old, weight: 200-250 g). The control group received the same amount of the vehicle (physiological Saline). Thirty minutes after the administration, ammonium sulfate […] was administered to the abdominal cavity of the rats. The survival rate at 30 minutes after the administration of ammonium sulfate was calculated. Animals that had survived until 30 minutes after the administration of ammonium sulfate were killed under chloroform, and their lungs were removed to measure the weights. Regarding animals that had been dead by 30 minutes after the administration of ammonium sulfate, their lungs were removed immediately after their death to measure the weights. The lung-weight of the respective groups was compared to the lung-weight of the normal group, which received no ammonium sulfate. Based on the lung-weight measurements, the inhibitory rate of lung-weight increase of the group receiving test substance 1 as compared to that of the control group was calculated.

removed liver [5] = experiment: Bile amount and chloride ion in bile of removed perfused rat liver; conditions: 10 μM in Krebs-Ringer perfusate, 30 minutes, Mean ± S.E.
Procedure: Male Wistar rats were used. The common bile duct of both the test and the control groups were catheterized to collect bile under pentobarbital sodium anesthesia. After the catheter was inserted and fixed in the portal vein, Krebs-Ringer solution (pH 7.4, 37° C.) comprising sodium taurocolate (30 μmol/1) saturated with 95% O2 and 5% CO2 was infused at a constant flow rate of 4.0 mL/min/g liver weight by means of peristaltic pump. The liver was removed under perfusion. For the test group, test substance 2 was added to the Krebs-Ringer solution. Thirty minutes after the perfusion, the amount of bile of both the test group and the control group was measured. Chloride ion concentration in the bile was also measured. The amount of bile at 30 minutes after the administration of test substance 2 or vehicle was shown as relative value (%) to the amount immediately before the administration.

Beagle dogs = experiment: Cardiac output in dog model of cardiac incompetence; type: in vivo; conditions: 30 minutes after administration relative to immediately before, Mean ± S.E.
Procedure: Beagle dogs (weight: 8.8-10.3 kg) were used, and under thiopental sodium and α-chloralose anesthesia, their cardiac output was guided from a FJ probe equipped on the aortic arch via a rectangular wave electromagnetic blood flow meter (MFV-3100, Nihon Koden) to a blood flow-indicating unit and recorded in a recorder. The model of cardiac incompetence was prepared in accordance with the following method. A continuous infusion of lactate Ringer solution (5 mL/body/min) having dissolved therein DL-propranolol (0.06 mg/mL) from a catheter inserted into the left femoral vein started diastolic overload. Thirty minutes later, the left anterior descendence (LAD) was ligated. […] At the time the cardiac output was reduced by at least 20% from that before the diastolic overload, the dose of methoxamine was reduced to 5 μg/kg/min and the infusion of lactate Ringer solution was reduced to 3 mL/kg/min, which was continued until the completion of experiments. Sixty to 90 minutes after the cardiac output was reduced by at least 20% and other hemodynamic parameters were stabled, test substance 2 was administered via a cannula indwelled in the duodenum. The control group received a vehicle. […]

male Wistar rats [6] = experiment: Taurocholic acid and trypsin induced pancreatitis, serum amylase; type: in vivo, rat; conditions: 100 μg/kg subcutaneous
Procedure: Male Wistar rats (weight: 240-270 g) that had been fasted overnight were subjected to abdominal incision under pentobarbital sodium anesthesia. Then a mixed solution of 10% taurocholic acid 3 mL and 0.3% trypsin solution 0.3 mL was antidroicly infused from the bile duct duodenum opening to induce pancreatitis. Thirty minutes before, and 2 and 4 hours after the infusion of the mixed solution of taurocholic acid and trypsin, test substance 2 was subcutaneously administered. The control group received the vehicle. Six hours after the infusion of the mixed solution of taurocholic acid and trypsin, the blood was collected to measure the serum amylase activity.

removed liver [7] = experiment: Organ preservation: bile flow after 16-hour cold storage and reperfusion of rat liver; conditions: 30 minutes after reperfusion, Mean ± S.D.
Procedure: Male Wistar rats (weight: about 280 g) were anesthetized with intraperitoneal injection of pentobarbital sodium (50 mg/kg) and hepatic-portal region was exposed by abdominal midline incision. The common bile duct was cannulated and the portal stem was inserted with a 19 gauge Surflo® needle equipped with a three way stopcock. […] The liver was cut off from the tissues around it, removed outside the body and subjected to extracorporeal perfusion. The liver was subjected to a 15-minute pre-perfusion until its oxygen consumption achieved to a constant state. Then the perfusate was replaced with an organ preservative solution (University of Wisconsin solution; (U-W solution) at 4° C. Immediately after the replacement was completed, the liver connected with the three-way stopcock was removed from the perfusion cycle and the inlet was clamped. Then the liver was put in the preservative solution (U-W solution) at the same temperature and stored for 16 hours. After the 16-hour storage, the liver was reperfused with Krebs-Ringer Buffer. Thirty minutes after the reperfusion, the amount of bile flow was measured. (1) Effect of substance 2 added to the organ preservative solution (U-W solution) In the above perfusion protocol, test substance 2 at the concentration of 10 μM was added to the preservative solution (U-W solution). […]

male Wistar rats [8] = experiment: Mercuric chloride induced large intestinal ulcer; type: in vivo, rat; conditions: for Gross Ulcer Area: 30 min before and 2 and 6 hours after HgCl2, Mean ± S.E.
Procedure: Mercuric chloride (HgCl2) of 4 mg/kg was intramuscularly administered to male Wistar rats (weight: 245-290 g) to induce ulcer in the large intestine. Thirty minutes before, and 2 and 6 hours after the administration of HgCl2, test substance 2 was subcutaneously administered. The control group received a vehicle. Twenty-four hours after the administration of HgCl2, the animals were bled to death under ether anesthesia. After abdominal incision, the upper portion of the ileocecal opening and the upper portion of the anus were ligated, and the large intestine region from the caecum to the rectum was removed. The removed large intestine was fixed with 1% formalin and then dissected, and the major and minor axes of ulcer were measured with a caliper under a stereoscopic microscope. The product of the major axis multiplied by the minor axis was expressed as the ulcer area. Further, the total ulcer area was calculated in each animal, which was expressed as the gross ulcer area.

male Wistar rats [9] = experiment: Amount of bile and chloride ion concentration in bile in rats after repeated oral dosing; type: in vivo, rat; conditions: 100 μg/kg oral three times a day for seven days, Mean ± S.E.
Procedure: Test substance 2: 13,14-dihydro-15-keto-16,16-difluoro-18(S)-methyl-prostaglandin E1, which is a ClC-2 channel opener was used. Test substance 2 of 100 μg/kg was orally administered to male Wistar rats (six weeks old, weight: 180-210 g) three times a day for seven days. The control group received the same amount of the vehicle (0.01% polysorbate 80 and 0.5% ethanol in distilled water). In the following morning of the final administration day (about 17 hours after the final administration), a polyethylene catheter (PE10, Becton Dickinson and Company) was inserted into the rats' common bile duct under ether anesthesia. The rats were placed in a Borrmann's cage and were left for 1 hour to awake from anesthesia. Bile discharged during one hour from one to two hours after the insertion of the catheter was collected to measure the amount of bile. Chloride ion concentration was measured with a chloride counter (CL-7, Hiranuma Sangyo Co., Ltd.). Student's t-test was used in comparing the control group and the group receiving test substance 2. P values less than 0.05 were considered to be statistically significant.

With `CCCCC(F)(F)C(=O)CC[C@H]1[C@H](O)CC(=O)[C@@H]1CCCCCCC(=O)O` [Test Sub. 1, 13,14-dihydro-15-keto-16,16-difluoro-prostaglandin E1] the “Duration of Gasping” value (ddY male mice) was 24.1 ± 1.9, the “Ulcer Inhibitory Rate” value (male Wistar rats [1]; 30 μg/kg oral) was 54.3% and the “Ulcer Coefficient” value (male Wistar rats [1]; 30 μg/kg oral) was 13.4 ± 2.0. For the same compound, the “Ulcer Inhibitory Rate” value (male Wistar rats [1]; 100 μg/kg oral) was 85.3%, the “Ulcer Coefficient” value (male Wistar rats [1]; 100 μg/kg oral) was 4.3 ± 1.9 and the “Ulcer Inhibitory Rate” value (male Wistar rats [2]; 2 μg/kg oral) was 44%. The “Ulcer Coefficient” value (male Wistar rats [2]; 2 μg/kg oral) was 27.9 ± 5.1, the “Chloride Ion Concentration in Lacrimal Fluid” value (male white rabbit) was 152.9 ± 7.7^(##) mEq/L and the “Amount of Lacrimal Fluid” value (male white rabbit; Schirmer's Paper) was 11.5 ± 0.7 mL. For the same compound, the “Amount of Intestinal Fluid” value (male Wistar rats [3]; 10 μg/kg oral) was 3.3 ± 0.3 mL, the “Chloride Ion Concentration in Intestinal Fluid” value (male Wistar rats [3]; 10 μg/kg oral) was 110.1 ± 5.6 mEq/L and the “Amount of Intestinal Fluid” value (male Wistar rats [3]; 100 μg/kg oral) was 5.3 ± 0.2 mL. The “Chloride Ion Concentration in Intestinal Fluid” value (male Wistar rats [3]; 100 μg/kg oral) was 126.6 ± 2.4 mEq/L, the “Inhibitory Rate of Lung-weight Increase” value (male Wistar rats [4]; 0.01 mg/kg subcutaneous, compared to control group) was 47% and the “Surviving Rate” value (male Wistar rats [4]; 0.1 mg/kg subcutaneous, 30 minutes after ammonium sulfate) was 60%.
With `CC[C@H](C)CC(F)(F)C(=O)CC[C@H]1[C@H](O)CC(=O)[C@@H]1CCCCCCC(=O)O` [Test Sub. 2, 13,14-dihydro-15-keto-16,16-difluoro-18(S)-methyl-prostaglandin E1] the “Chloride Ion Concentration in Bile” value (removed liver [5]) was 0.353 ± 0.009 μM/min/g liver, the “Relative Amount of Bile” value (removed liver [5]; relative to amount immediately before administration) was 126.2 ± 9.0 % and the “Relative Cardiac Output” value (Beagle dogs; 100 μg/kg intraduodenal) was 108.7 ± 0.47 %. The “Relative Cardiac Output” value (Beagle dogs; 300 μg/kg intraduodenal) was 117.8 ± 2.42 %, the serum amylase (male Wistar rats [6]; 30 min before and 2 and 4 hours after infusion, blood at six hours, Mean ± S.E.) was 2430 ± 417 IU/L and the “Inhibitory Rate” value (male Wistar rats [6]; serum amylase) was 22.6%. For the same compound, the “Amount of Bile Flow” value (removed liver [7]; 10 μM added to the perfusate during reperfusion) was 2.67 ± 0.31 μL/min/g liver, the “Amount of Bile Flow” value (removed liver [7]; 10 μM added to the preservative solution (U-W solution)) was 2.43 ± 0.10 μL/min/g liver and the “Ulcer Inhibitory Rate” value (male Wistar rats [2]; 1 μg/kg oral) was 58.7%. The “Ulcer Coefficient” value (male Wistar rats [2]; 1 μg/kg oral) was 35.7 ± 8.3, the “Ulcer Inhibitory Rate” value (male Wistar rats [2]; 3 μg/kg oral) was 65.3% and the “Ulcer Coefficient” value (male Wistar rats [2]; 3 μg/kg oral) was 30.0 ± 4.6. The “Ulcer Inhibitory Rate” value (male Wistar rats [2]; 10 μg/kg oral) was 77.2%, the “Ulcer Coefficient” value (male Wistar rats [2]; 10 μg/kg oral) was 19.7 ± 4.8 and the “Ulcer Inhibitory Rate” value (male Wistar rats [8]; 10 μg/kg subcutaneous) was 54.3%. For the same compound, the “Gross Ulcer Area” value (male Wistar rats [8]; 10 μg/kg subcutaneous) was 15.2 ± 15.8 mm^2, the “Ulcer Inhibitory Rate” value (male Wistar rats [8]; 1000 μg/kg subcutaneous) was 85.3% and the “Gross Ulcer Area” value (male Wistar rats [8]; 1000 μg/kg subcutaneous) was 3.7 ± 8.3** mm^2. For the same compound, the “Chloride Ion Concentration in Bile” value (male Wistar rats [9]) was 98.4 ± 1.8 mEq/L and the Amount of Bile (male Wistar rats [9]; bile collected during one hour) was 492 ± 36.7 µL.
